≈ marks a conversion by molar mass, not a printed value. Read-outs that look alike come from different tables or passages of the source.
Key:
[1] = test system: E. col ATCC 25922 LepB(P84L); experiment: In vitro antimicrobial activity, MIC by broth micro-dilution; assay type: cell-based, E. coli; settings: for MIC: Escherichia coli, ATCC25922, read-out: MIC class, E. col ATCC 25922 LepB(P84L)
Method: (§1) In vitro antimicrobial activity of each compound was determined by measuring minimal inhibitor concentrations (MICs) using the broth micro-dilution technique as approved by the Clinical and Laboratory Standards Institute (CLSI). The microbiological panel examined contains a number of bacterial species including E. coli MG1655, P. aeruginosa, S. aureus, and S. epidermidis. In addition, the panel includes previously described pseudo-isogenic strains of these four species (P. A. Smith et al. Chem Biol 2010, 1223-1231), in which a specific proline residue in SPase (called LepB in Gram-negative organisms an SpsB in Gram-positive organisms) has been mutated to a different amino acid. The resulting strains have increased susceptibility to the arylomycin class of antibiotics. Analysis of the strains lacking this proline residue will increases the dynamic range of the assay, and comparison of the sensitivities of the isogenic pairs provides ongoing confirmation that the activity gained through derivatization is specific to the inhibition of SPase. Briefly, bacterial streaks were grown on Mueller Hinton Agar II (Difco™) with or without 5% lysed horse blood for a period of 24 hours at either 35° C. or 28° C. Bacterial colonies were suspended in cation adjusted Mueller Hinton broth and diluted to a final concentration of 1*10^7 colony forming units/ml. Two-fold serial dilutions of each compound were arrayed into 96-well plates (100 μl final volume per well) and 5 ul of the bacterial suspension will be added. […] MICs were periodically checked plating serial dilutions of MIC wells and quantitatively determining viable colonies.

[2] = test system: S. aureus NCTC-8325 SpsB(P295); experiment: as above; assay type: cell-based; settings: for MIC: Staphylococcus aureus, NCTC8325, read-out: MIC class, S. aureus NCTC-8325 SpsB(P295)
Method: as §1

S. epidermidis RP62A = experiment: as above; assay type: cell-based; settings: for MIC: Staphylococcus epidermidis, RP62A, read-out: MIC class, S. epidermidis RP62A
Method: as §1

E. coli ATCC 25922 = experiment: as above; assay type: cell-based; settings: for MIC: Escherichia coli, ATCC25922, read-out: MIC class, E. coli ATCC 25922
Method: as §1

S. pneumoniae D39 = experiment: as above; assay type: cell-based; settings: for MIC: Streptococcus pneumoniae, D39, read-out: MIC class, S. pneumoniae D39
Method: as §1

E. coli SPase = molecular target: T1, E. coli SPase (Escherichia coli, UniProt P00803); experiment: Enzymatic fluorogenic substrate cleavage assay for IC50; assay type: biochemical
T1 construct: Full length His-tagged E. coli SPase proteins were expressed in E. coli BL21(DE3); His-tag; made in house; host or cells: E. coli BL21(DE3)
Method: (§2) Full length His-tagged E. coli SPase proteins were expressed in E. coli BL21(DE3) containing the plasmid pET23-lepB, P. A. Smith et al. Chem Biol 2010, 1223-1231. Briefly, saturated overnight cultures grown in 20 ml of Luria-Bertani medium supplemented with ampicillin were subcultures into 1.5 L of Luria-Bertani, and shaken at 37° C. until an optical density at 600 nm of 0.4-0.5 was achieved. Protein expression was induced with Isopropyl β-D-1-thiogalactopyranoside (ITPG) at a final concentration of […], and purified using nickel affinity chromatography. Full length His-tagged S. aureus SPase protein was expressed similarly from E. coli BL21(DE3) containing the plasmid pCDF1-SaSpsB or pCDF1-SaSpsB(P29S) and purified similarly to the E. coli protein with the following exceptions. SPase protein was solubilized using 300 mM NaCl, 20 mM Tris pH 8.06, 5 mM Imidazole, 10% glycerol, 1% Triton X-100, prior to purification in Ni-NTA Superflow resin and resin bound protein was washed in a similar buffer containing 1% Elugent in place of Triton X-100 prior to protein eluted in wash buffer supplemented with 300 mM imidazole. Protein purify was judged to exceed 95% by visual inspection of SDS-PAGE followed by Comassie staining. All protein concentrations were determined by BCA assay.
(§3) In addition to the equilibrium binding assays, compound activity is also characterized by measuring inhibition of E. coli and S. aureus substrate cleavage reactions using fluorogenic peptides developed at RQx Pharmaceuticals. Briefly, two fluorogenic peptide substrates (decanoyl-LSSPA Y^NO2 A ? ADK^abzPD (SEQ ID NO: 1) and decanyol-LTPTAY^NO2 A ? ASKK^abzDD (SEQ ID NO: 2)) have been synthesized, where abz is the fluorescence donor 2-aminobenzamide, YNO2 is the fluorescence acceptor 3-nitrotyrosine, and the cleavage site is indicated with an arrow. These substrates are processed with a second order rate constant (Kcat/KM) of 10^5 M^−1s^−1 for E. coli and S. aureus SPase enzymes, and cleavage results in a greater than 10-fold increase in fluorescence signal (excitation at 314 nm, emission at 416 nm) as measured using a SpectraMax M2 fluorescence microplate reader. Two-folder serial dilutions of compound are prepared in cleavage reaction buffer consisting of: 50 mM Tris-HCl pH 8.0, 100 mM NaCl, 10% glycerol, 1 mM EDTA, detergent (1% NP-40 or 0.1% Elugent™ for E. coli LepB or S. aureus SpsB respectively) and either 2.5 nM of E. coli SPase enzyme or 10 nM of S. aureus SPase enzyme. 40 μl aliquots of the compound dilution series in the protein/buffer solution is transferred to black 384-well polypropylene plates, and 10 μl of fluorogenic peptide at a concentration of 100 μM is added to initiate the reaction. The increase in fluorescence, corresponding to substrate cleavage, is monitored continuously at room temperature for 30 minutes and initial reaction rates are calculated based in the linear increase in fluorescence from the initial 30 minutes of the reaction. Reaction rates are plotted as a function of compound concentration, and IC50 values are determined nonlinear regression analysis (SoftMax® Pro v5.4) of the sigmoidal dose-response curve.

S. aureus SPase = molecular target: T2, S. aureus SPase (Staphylococcus aureus, UniProt P0A070); experiment: as above; assay type: biochemical
T2 construct: Full length His-tagged S. aureus SPase protein was expressed similarly; His-tag; made in house; host or cells: E. coli BL21(DE3)
Method: as §2, §3

S. aurues NCTC-8325 = experiment: In vitro antimicrobial activity, MIC by broth micro-dilution; assay type: cell-based, S. aureus; settings: for MIC: Staphylococcus aureus, NCTC8325, read-out: MIC class, S. aurues NCTC-8325
Method: as §1

| Compound | MIC [1] [µg/mL] | MIC [2] [µg/mL] | MIC (S. epidermidis RP62A) [µg/mL] | MIC (E. coli ATCC 25922) [µg/mL] | MIC (S. pneumoniae D39) [µg/mL] | IC50 (E. coli SPase) [µM] | IC50 (S. aureus SPase) [µM] | MIC (S. aurues NCTC-8325) [µg/mL] | MIC class, E. col ATCC 25922 LepB(P84L) ([1]; E. col ATCC 25922 LepB(P84L)) | MIC class, S. aureus NCTC-8325 SpsB(P295) ([2]; S. aureus NCTC-8325 SpsB(P295)) | MIC class, S. epidermidis RP62A (S. epidermidis RP62A; S. epidermidis RP62A) | MIC class, E. coli ATCC 25922 (E. coli ATCC 25922; E. coli ATCC 25922) | MIC class, S. pneumoniae D39 (S. pneumoniae D39; S. pneumoniae D39) | IC50 (E. coli SPase; fluorogenic peptide cleavage, read-out: IC50 class E. coli SPase) [µM] | IC50 (S. aureus SPase; fluorogenic peptide cleavage, read-out: IC50 class S. aureus SPase) [µM] | MIC class, S. aurues NCTC-8325 (S. aurues NCTC-8325; S. aurues NCTC-8325) |
| --- | --- | --- | --- | --- | --- | --- | --- | --- | --- | --- | --- | --- | --- | --- | --- | --- |
| CCCCCCCCCCCCCCCC(=O)N(C)[C@H](CO)C(=O)N[C@H](C)C(=O)NCC(=O)N(C)[C@@H]1C(=O)N[C@@H](C)C(=O)N[C@H](C(=O)N[C@H](CO)CCC)Cc2ccc(O)c(c2)-c2cc1ccc2O [Compound 69] | < 8 | > 64 | 16 to 64 (≈ 16.6 to 66.2 µM) | > 64 | 16 to 64 (≈ 16.6 to 66.2 µM) | 1 to 10 | > 10 | > 64 |  |  |  |  |  |  |  |  |
| CCCCCCCCCCCCCCCC(=O)N(C)[C@H](CO)C(=O)N[C@H](C)C(=O)NCC(=O)N(C)[C@@H]1C(=O)N[C@@H](C)C(=O)N[C@H](C(=O)NC[C@H](C)O)Cc2ccc(O)c(c2)-c2cc1ccc2O [Compound 64] | 16 to 64 (≈ 17.1 to 68.2 µM) | > 64 | < 8 | > 64 | < 8 | 1 to 10 | > 10 | > 64 |  |  |  |  |  |  |  |  |
| CCCCCCCCCCCCCCCC(=O)N(C)C(CO)C(=O)N[C@H](C)C(=O)NCC(=O)N(C)[C@@H]1C(=O)N[C@@H](C)C(=O)NC(C(=O)NCC(O)CO)Cc2ccc(O)c(c2)-c2cc1ccc2O (some centres unmarked) [Compound 62] | 16 to 64 (≈ 16.8 to 67.1 µM) | > 64 | > 64 | > 64 | 16 to 64 (≈ 16.8 to 67.1 µM) | 1 to 10 | > 10 | > 64 |  |  |  |  |  |  |  |  |
| CCCCCCCCCCCCCCCC(=O)N(C)[C@H](CO)C(=O)N[C@H](C)C(=O)NCC(=O)N(C)[C@@H]1C(=O)N[C@@H](C)C(=O)N[C@H](C(=O)NCC=O)CCCc2ccc(O)c(c2)-c2cc1ccc2O [Compound 94] |  |  |  |  |  |  |  |  | a (MIC >64 μg/ml) | a (MIC >64 μg/ml) | c (MIC ≤8 μg/ml) | a (MIC >64 μg/ml) | b (MIC 16-64 μg/ml) | < 1 | < 1 | a (MIC >64 μg/ml) |
| CCCCCCCCCCCCCCCC(=O)N(C)[C@H](CO)C(=O)N[C@H](C)C(=O)NCC(=O)N(C)[C@@H]1C(=O)N[C@@H](C)C(=O)N[C@H](C(=O)NCCOC)Cc2ccc(O)c(c2)-c2cc1ccc2O [Compound 61] | 16 to 64 (≈ 17.1 to 68.2 µM) | > 64 | > 64 | > 64 | < 8 | 1 to 10 | > 10 | > 64 |  |  |  |  |  |  |  |  |
| CCCCCCCCCCCCCCCC(=O)N(C)[C@H](CO)C(=O)N[C@H](C)C(=O)NCC(=O)N(C)[C@@H]1C(=O)N[C@@H](C)C(=O)N[C@H](C(=O)N[C@H](C)CO)Cc2ccc(O)c(c2)-c2cc1ccc2O [Compound 63] | > 64 | > 64 | 16 to 64 (≈ 17.1 to 68.2 µM) | > 64 | 16 to 64 (≈ 17.1 to 68.2 µM) | > 10 | > 10 | > 64 |  |  |  |  |  |  |  |  |
| CCCCCCCCCCCCCCCC(=O)N(C)[C@H](CO)C(=O)N[C@H](C)C(=O)NCC(=O)N(C)[C@@H]1C(=O)N[C@@H](C)C(=O)N[C@H](C(=O)NCC(O)C(=O)O)Cc2ccc(O)c(c2)-c2cc1ccc2O (some centres unmarked) [Compound 78] | > 64 | > 64 | > 64 | > 64 | 16 to 64 (≈ 16.5 to 66.1 µM) | < 1 | > 10 | > 64 |  |  |  |  |  |  |  |  |
| CCCCCCCCCCCCCCCC(=O)N[C@H](CO)C(=O)N[C@H](C)C(=O)N[C@@H](C)C(=O)N(C)[C@@H]1C(=O)N[C@@H](C)C(=O)N[C@H](C(=O)O)Cc2ccc(O)c(c2)-c2cc1ccc2O [Compound 87] | > 64 | > 64 | < 8 | > 64 | > 64 | < 1 | < 1 | > 64 |  |  |  |  |  |  |  |  |
| CCCCCCCCCCCCCCCC(=O)N(C)C(CO)C(=O)N[C@H](C)C(=O)NCC(=O)N(C)[C@@H]1C(=O)N[C@@H](C)C(=O)NC(C(=O)NCC(O)C(N)=O)Cc2ccc(O)c(c2)-c2cc1ccc2O (some centres unmarked) [Compound 82] | > 64 | > 64 | > 64 | > 64 | 16 to 64 (≈ 16.5 to 66.2 µM) | 1 to 10 | > 10 | > 64 |  |  |  |  |  |  |  |  |
| CCCCCCCCCCCCCCCC(=O)N(C)[C@H](CO)C(=O)N[C@H](C)C(=O)NCC(=O)N(C)[C@@H]1C(=O)N[C@@H](C)C(=O)N[C@H](C(=O)NCC(=O)NS(C)(=O)=O)Cc2ccc(O)c(c2)-c2cc1ccc2O [Compound 60] | < 8 | > 64 | < 8 | > 64 | < 8 | < 1 | 1 to 10 | > 64 |  |  |  |  |  |  |  |  |

Reference: patent publication US10501493B2, “Broad spectrum antibiotics” (priority 2011, dated 2019)
